Structures are written as SMILES.

One may read the IC50 as the midpoint of a concentration-inhibition curve. A lower IC50 goes with greater potency in that assay.

In the assay the target is Polyunsaturated fatty acid 5-lipoxygenase (Cavia porcellus). The assay can be described thus: Inhibition of [14C]arachidonic acid conversion to 5-HETE by broken cell 5-LO isolated from guinea pig PMN.
Consider `O=c1c2c([nH]n1CCOc1ccc3ccccc3c1)CCCC2` [2-[2-(Naphthalen-2-yloxy)-ethyl]-2,3a,4,5,6,7-hexahydro-indazol-3-one], for which the IC50 came to 310 nM.

The compound `O=c1c2c([nH]n1CCOc1ccc3ccccc3c1)CCC2` [2-[2-(Naphthalen-2-yloxy)-ethyl]-3a,4,5,6-tetrahydro-2H-cyclopentapyrazol-3-one] came in with a half-inhibitory concentration (IC50) of 480 nM.

`Cc1cc(=O)n(CCOc2ccc3c(c2)Nc2ccccc2S3)[nH]1` [5-Methyl-2-[2-(10H-phenothiazin-2-yloxy)-ethyl]-2,4-dihydro-pyrazol-3-one] came in with a 50% inhibitory concentration (IC50) of 57 nM.
